Experimental findings from ChEMBL document CHEMBL1125630, “Positional effects of sulfation in hirudin and hirudin PA related anticoagulant peptides” (J Med Chem, 1991) are described below.

pIC50: −log10 of the molar value.

The experiment is described as follows: In vitro inhibition fibrin clot formation after addition of thrombin. It is filed as functional, Homo sapiens.
As for `CC[C@H](C)[C@H](NC(=O)[C@@H]1CCCN1C(=O)C(CCC(=O)O)NC(=O)[C@H](Cc1ccccc1)NC(=O)CCC(=O)O)C(=O)N1CCC[C@H]1C(=O)NC(CCC(=O)O)C(=O)NC(CCC(=O)O)C(=O)N[C@@H](C)C(=O)N[C@@H](Cc1ccc(O)cc1)C(=O)NC(CCC(=O)O)C(=O)O` (stereo in doubt), the pIC50 was 5.92.

In the case of `CC[C@H](C)[C@H](NC(=O)[C@@H]1CCCN1C(=O)C(CCC(=O)O)NC(=O)[C@H](Cc1ccc(O)cc1)NC(=O)CCC(=O)O)C(=O)N1CCC[C@H]1C(=O)NC(CCC(=O)O)C(=O)NC(CCC(=O)O)C(=O)N[C@@H](C)C(=O)N[C@@H](Cc1ccc(NS(=O)(=O)O)cc1)C(=O)NC(CCC(=O)O)C(=O)O` (stereo in doubt), the pIC50 was 5.60.

As to `CC[C@H](C)[C@H](NC(=O)[C@@H]1CCCN1C(=O)C(CCC(=O)O)NC(=O)[C@H](Cc1ccc(O)cc1)NC(=O)CCC(=O)O)C(=O)N1CCC[C@H]1C(=O)NC(CCC(=O)O)C(=O)NC(CCC(=O)O)C(=O)N[C@@H](Cc1ccc(N)cc1)C(=O)N[C@@H](CC(C)C)C(=O)NC(CCC(=O)O)C(=O)O` (stereo in doubt), the pIC50 was 6.42.

Consider `CC[C@H](C)[C@H](NC(=O)[C@@H]1CCCN1C(=O)C(CCC(=O)O)NC(=O)[C@H](Cc1ccccc1)NC(=O)CCC(=O)O)C(=O)N1CCC[C@H]1C(=O)NC(CCC(=O)O)C(=O)NC(CCC(=O)O)C(=O)N[C@@H](Cc1ccc(OS(=O)(=O)O)cc1)C(=O)N[C@@H](CC(C)C)C(=O)NC(CCC(=O)O)C(=O)O` (stereo in doubt), for which the pIC50 is 7.06.

H-GDFEPIPEDAYDE-OH showed a pIC50 of 5.57.

Consider `CC[C@H](C)[C@H](NC(=O)[C@@H]1CCCN1C(=O)C(CCC(=O)O)NC(=O)[C@H](Cc1ccccc1)NC(=O)CCC(=O)O)C(=O)N1CCC[C@H]1C(=O)NC(CCC(=O)O)C(=O)NC(CCC(=O)O)C(=O)N[C@@H](Cc1ccc(O)cc1)C(=O)N[C@@H](CC(C)C)C(=O)NC(CCC(=O)O)C(=O)O` (stereo in doubt), for which the pIC50 was 5.80. This pIC50 lies 0.23 log units higher than the previous one.

On to `CC[C@H](C)[C@H](NC(=O)[C@@H]1CCCN1C(=O)C(CCC(=O)O)NC(=O)[C@H](Cc1ccc(O)cc1)NC(=O)CCC(=O)O)C(=O)N1CCC[C@H]1C(=O)NC(CCC(=O)O)C(=O)NC(CCC(=O)O)C(=O)N[C@@H](C)C(=O)N[C@@H](Cc1ccc(N)cc1)C(=O)NC(CCC(=O)O)C(=O)O` (stereo in doubt), for which the pIC50 is 5.54. This pIC50 is 0.26 log units lower than that of the compound before.

`CC[C@H](C)[C@H](NC(=O)[C@@H]1CCCN1C(=O)C(CCC(=O)O)NC(=O)[C@H](Cc1ccc(O)cc1)NC(=O)CCC(=O)O)C(=O)N1CCC[C@H]1C(=O)NC(CCC(=O)O)C(=O)NC(CCC(=O)O)C(=O)N[C@@H](C)C(=O)N[C@@H](Cc1ccc([N+](=O)[O-])cc1)C(=O)NC(CCC(=O)O)C(=O)O` (stereo in doubt) had a negative-log IC50 (pIC50) of 6.15.

In turn, `CC[C@H](C)[C@H](NC(=O)[C@@H]1CCCN1C(=O)C(CCC(=O)O)NC(=O)[C@H](Cc1ccccc1)NC(=O)CCC(=O)O)C(=O)N1CCC[C@H]1C(=O)NC(CCC(=O)O)C(=O)NC(CCC(=O)O)C(=O)N[C@@H](C)C(=O)N[C@@H](Cc1ccc(OS(=O)(=O)O)cc1)C(=O)NC(CCC(=O)O)C(=O)O` (stereo in doubt) showed a pIC50 of 6.52.

Consider `CC[C@H](C)[C@H](NC(=O)[C@@H]1CCCN1C(=O)C(CCC(=O)O)NC(=O)[C@H](Cc1ccc(O)cc1)NC(=O)CCC(=O)O)C(=O)N1CCC[C@H]1C(=O)NC(CCC(=O)O)C(=O)NC(CCC(=O)O)C(=O)N[C@@H](Cc1ccc(NS(=O)(=O)O)cc1)C(=O)N[C@@H](CC(C)C)C(=O)NC(CCC(=O)O)C(=O)O` (stereo in doubt), for which the pIC50 was 6.92.

Turning to `CC[C@H](C)[C@H](NC(=O)[C@@H]1CCCN1C(=O)C(CCC(=O)O)NC(=O)[C@H](Cc1ccc(O)cc1)NC(=O)CCC(=O)O)C(=O)N1CCC[C@H]1C(=O)NC(CCC(=O)O)C(=O)NC(CCC(=O)O)C(=O)N[C@@H](Cc1ccc([N+](=O)[O-])cc1)C(=O)N[C@@H](CC(C)C)C(=O)NC(CCC(=O)O)C(=O)O` (stereo in doubt), the pIC50 was 5.55.

By pIC50 is commonly meant the IC50 on a negative log10 scale, so that one unit is a factor of ten. Low values mean a large IC50, high ones a small IC50.
